{"source": "patent US20140044759A1", "about": "“DRUG SUBSTANCES, PHARMACEUTICAL COMPOSITIONS AND METHODS FOR PREPARING THE SAME” (priority 2011, published 2014)", "format_in_all_cases": "physicochemical", "key": {"[1]": {"experiment": "BET specific surface area by nitrogen adsorption (TRISTAR 2000)", "conditions": "for BET specific surface area, effect of slurry composition: external T=18 °C, FIG. 10", "description": "Through these tests, it was established that drug substance Brunnauer-Emmett-Teller specific surface area (“BET specific surface area” or “BET SSA”) in a particular range is desirable to obtain desirable dissolution properties in the final product. BET specific surface area can be measured by physical adsorption methods known to one of skill in the art. All measurements described herein were made on a TRISTAR 2000 instrument (MICROMERITICS, Norcross, Ga.) using the nitrogen adsorption method, as described in Webb, P. A., “Surface Area, Porosity, and Related Physical Characteristics,” in PHARMACEUTICAL DOSAGE FORMS: TABLETS, VOLUME 3: MANUFACTURE AND PROCESS CONTROL 277-302 (eds. L. Augsburger & S. W. Hoag Informa Healthcare USA Inc. 2008). In the nitrogen absorption method, a tube containing a solid sample is preconditioned at a certain temperature for a predetermined amount of time to remove gases/vapors adsorbed on the surface of the solids. For the examples described herein, the equilibration temperature was 30° C., and the time was 16 hours. The tube is then placed into the instrument and evacuated. After evacuation, the tube is submerged into liquid nitrogen, and a known amount of nitrogen (N2) gas is introduced in the tube by means of a control valve. The N2 gas expands and fills the free volume of the tube. The pressure P of the tube will become equal to nRT/V, where n is the number of N2 gas molecules introduced in the sample tube, R is the universal gas constant, T is the absolute temperature and V is the tube free volume. By repeating the evacuation and filling procedure for different amounts of N2 gas, a BET isotherm curve can be obtained, and the BET specific surface area of the solids can be calculated from the slope of the BET curve, as described in Webb (supra)."}, "[2]": {"experiment": "Dissolution testing of drug product, USP Dissolution Apparatus 2 (paddle)", "conditions": "45 minutes; drug substance BET SSA 12.06 m^2/g", "method": "The resulting drug products were subjected to dissolution testing in a USP Dissolution Apparatus 2 (DISTEK, New Brunswick, N.J.), equipped with a paddle (see United States Pharmacopeia (USP) General Chapter 711 Dissolution). 50 millimoles of phosphate buffer (pH=6.8) containing 0.1% sodium dodecyl sulphate was used. Testing was performed at physiological temperatures (37.0° C.±0.5° C.)."}, "[3]": {"experiment": "Bulk and tap density of drug substance powder (morphology study)", "method": "A solution of the product of Example 1, Procedure A2 (608.5 g) dissolved in MTBE (2450 mL) was prepared. The solution was added into the mixing chamber at a rate of 840 mL/min and combined with n-heptane flowing at a rate of 3400 mL/min to form a slurry. The precipitation temperature was controlled at 20° C. After precipitation, one sample was filtered at 20° C. and a second sample was heated to 50° C. at a rate of 1° C./min. The drug substance particle morphology was examined by Scanning Electron Microscopy (SEM); images of the particles are provided as FIGS. 7A and 7B, respectively.\nThe difference in morphology between the two […] samples is readily apparent. The sample filtered at 20° C., shown in FIG. 7A, retained the particle morphology obtained during precipitation. The sample heated to 50° C., shown in FIG. 7B, consists of particles that are fused together; some particles look melted. The particles having different morphologies also had differences in drug substance physical attributes."}, "[4]": {"conditions": "Example 8, equilibration temperature 20 °C (filtered at 20 °C)"}, "[5]": {"conditions": "Example 8, equilibration temperature 50 °C (heated to 50 °C at 1 °C/min)"}, "[6]": {"conditions": "aging process, sample: After 1% of batch distilled"}, "[7]": {"conditions": "aging process, sample: After 2% of batch distilled"}, "[8]": {"conditions": "aging process, sample: After 4% of batch distilled"}, "[9]": {"conditions": "aging process, sample: After 6 hours at aging temperature"}, "[10]": {"conditions": "aging process, sample: After distillation"}, "[11]": {"conditions": "aging process, sample: After precipitation"}, "[12]": {"conditions": "aging process, sample: Final dry cake"}}}
{"smiles": "CC(C)(C)NC(=O)N[C@H](C(=O)N1C[C@H]2[C@@H]([C@H]1C(=O)NC(CC1CCC1)C(=O)C(N)=O)C2(C)C)C(C)(C)C", "note": "(stereo partly drawn) [boceprevir, (1R,5S)—N-[3-amino-1-(cyclobutylmethyl)-2,3-dioxopropyl]-3-[2(S)-[[[(1,1-dimethylethyl)amino]carbonyl]amino]-3,3-dimethyl-1-oxobutyl]-6,6-dimethyl-3-azabicyclo[3.1.0]hexan-2(S)-carboxamide]", "values": [{"measurement": "BET specific surface area", "setting": "[1]; Example 2, laboratory scale tee mixer, slurry filtered immediately after precipitation and dried", "value": "about 94 m^2/g"}, {"measurement": "BET specific surface area", "setting": "[1]; Example 6, distillation profile of Table 3", "value": 2.93, "unit": "m^2/g"}, {"measurement": "BET specific surface area", "setting": "[1]; Example 6, distillation profile of Table 11 (25-27.0 °C)", "value": 2.01, "unit": "m^2/g"}, {"measurement": "BET specific surface area", "setting": "[1]; Example 7, drug substance used for the high BET SSA study", "value": 12.06, "unit": "m^2/g"}, {"measurement": "BET specific surface area, powder of FIG. 7A (20 °C) compared to powder of FIG. 7B (50 °C)", "setting": "[1]; Example 8", "value": 10, "unit": "times"}, {"measurement": "BET SSA", "setting": "[1]; [4]", "value": 19.11, "unit": "m^2/g"}, {"measurement": "BET SSA", "setting": "[1]; [5]", "value": 1.82, "unit": "m^2/g"}, {"measurement": "final BET specific surface area as a function of equilibration temperature", "setting": "[1]; Example 9, slurries from -15 °C held at external temperatures of 5 °C and 0 °C, FIG. 8", "value": "lower for the higher equilibration temperature"}, {"measurement": "changes in BET specific surface area on holding at aging temperature", "setting": "[1]; Example 10, aging temperature 14 °C, after 3 hours of holding, FIG. 6", "value": "very small changes"}, {"measurement": "BET specific surface area, effect of slurry composition", "setting": "[1]; Example 12, first slurry (low solvent/high anti-solvent)", "value": "higher drug substance BET specific surface area"}, {"measurement": "BET specific surface area, effect of slurry composition", "setting": "[1]; Example 12, second slurry (high solvent/low anti-solvent)", "value": "lower drug substance BET specific surface area"}, {"measurement": "% Dissolved", "setting": "[2]", "value": "did not consistently meet or exceed a 75% dissolution criterion"}, {"measurement": "bulk and tap density, powder of FIG. 7A (20 °C) compared to powder of FIG. 7B (50 °C)", "setting": "[3]; Example 8", "value": "about 2 times"}, {"measurement": "Bulk Density", "setting": "[3]; [4]", "value": 0.3087, "unit": "g/mL"}, {"measurement": "Tap Density", "setting": "[3]; [4]", "value": 0.4062, "unit": "g/mL"}, {"measurement": "Bulk Density", "setting": "[3]; [5]", "value": 0.1265, "unit": "g/mL"}, {"measurement": "Tap Density", "setting": "[3]; [5]", "value": 0.1898, "unit": "g/mL"}]}
{"smiles": "CC(C)(C)NC(=O)N[C@H](C(=O)N1C[C@H]2[C@@H]([C@H]1C(=O)NC(CC1CCC1)C(=O)C(N)=O)C2(C)C)C(C)(C)C", "note": "(stereo partly shown) [Batch 1]", "values": [{"measurement": "BET SSA", "setting": "[1]; [6]", "value": 9.18, "unit": "m^2/g"}, {"measurement": "BET SSA", "setting": "[1]; [7]", "value": 9.13, "unit": "m^2/g"}, {"measurement": "BET SSA", "setting": "[1]; [8]", "value": 9.05, "unit": "m^2/g"}, {"measurement": "BET SSA", "setting": "[1]; [9]", "value": 9.60, "unit": "m^2/g"}, {"measurement": "BET SSA", "setting": "[1]; [10]", "value": 8.88, "unit": "m^2/g"}, {"measurement": "BET SSA", "setting": "[1]; [11]", "value": 56.70, "unit": "m^2/g"}, {"measurement": "BET SSA", "setting": "[1]; [12]", "value": 9.30, "unit": "m^2/g"}]}
{"smiles": "CC(C)(C)NC(=O)N[C@H](C(=O)N1C[C@H]2[C@@H]([C@H]1C(=O)NC(CC1CCC1)C(=O)C(N)=O)C2(C)C)C(C)(C)C", "note": "(stereo partly shown) [Batch 2]", "values": [{"measurement": "BET SSA", "setting": "[1]; [6]", "value": 7.14, "unit": "m^2/g"}, {"measurement": "BET SSA", "setting": "[1]; [7]", "value": 6.90, "unit": "m^2/g"}, {"measurement": "BET SSA", "setting": "[1]; [8]", "value": 6.88, "unit": "m^2/g"}, {"measurement": "BET SSA", "setting": "[1]; [9]", "value": 7.36, "unit": "m^2/g"}, {"measurement": "BET SSA", "setting": "[1]; [10]", "value": 6.92, "unit": "m^2/g"}, {"measurement": "BET SSA", "setting": "[1]; [11]", "value": 46.94, "unit": "m^2/g"}, {"measurement": "BET SSA", "setting": "[1]; [12]", "value": 7.61, "unit": "m^2/g"}]}
